Measured values: patent publication US20120040920A1, “OLIGOSACCHARIDE ALDONIC ACIDS AND THEIR TOPICAL USE” (priority 1999, published 2012)

Tests used:
[1] = antioxidant property, banana peel test method; settings: 2×2 cm peels in 5 ml 0.1 M test solution; water control tan within 4 hours
Source text: (§1) An antioxidant may be defined as a substance capable of preventing or inhibiting oxidation. […] The antioxidant property is readily determined by using any one of the following test methods: prevention or retardation of air oxidation of (a) anthralin, (b) hydroquinone, or (c) banana peel. A freshly prepared anthralin solution or cream is bright yellow, and an air oxidized one is brownish or black. A hydroquinone solution or cream is colorless or white color, and an air oxidized one is brownish or black. A freshly peeled banana peel is light yellow in color and an oxidized one ranges in color from tan, dark tan, brown to brownish black.
For example, in control experiments, fresh banana peels cut into sizes of 1×2 cm in 50 mm plastic petri dishes containing 5 ml water at neutral or acidic pH changed in color from white-yellowish to tan within 6 hours at room temperature, and changed to dark tan color during the next period of 24 to 72 hours.
Antioxidant property of an oligosaccharide aldonic acid may also be determined by utilizing banana peel test method as follows.
A fresh ripe banana peel cut into sizes of 2×2 cm has the outer layer light yellow in color. These freshly cut banana peels after exposed to air or immersed in an aqueous solution without an antioxidant in 50 mm plastic petri dishes rapidly changed in color from yellowish to tan within 3 hours, dark tan within 24 hours and brown black after 72 hours. A test substance including a positive control such as vitamin C, citric acid or N-acetylcysteine was prepared as 0.1 M concentration, and each test dish contained 5 ml test solution. Freshly cut banana peels 2×2 cm in sizes were immersed in 5 ml test solutions including known antioxidants and vehicle controls with pH at 7.0 and 4.0. […] The same results were also found for the known antioxidant substances; vitamin C, citric acid and N-acetylcysteine.

[2] = antioxidant property, hydroquinone test method; assay type: physicochemical; settings: oil-in-water cream, 2% hydroquinone, test substance 0.4 M, room temperature, 5 days
Source text: as §1
Antioxidant property of an oligosaccharide aldonic acid may also be determined by utilizing hydroquinone test method as follows. Hydroquinone also known as 1,4-dihydroxybenzene is a white powder, and a composition containing hydroquinone without a suitable antioxidant is chemically unstable even at room temperature. For example, hydroquinone 2% in an oil-in-water cream changed in color from white to grey within 2 hours, and the cream became light brown within 48 hours and dark brown after 72 hours at room temperature.

[3] = gel matrix formation on evaporation of an aqueous solution at room temperature; assay type: physicochemical; settings: for gel matrix formation: 1 g in 1 ml water, 20-25° C., slow evaporation; for acid content of the gel film / water retained in the gel film (gel matrix): by weight, 1 g acid in 1 ml water evaporated at room temperature; for original water evaporated: 1 g acid in 1 ml water, room temperature
Source text: In contrast to an alpha hydroxyacid and polyhydroxyacid, an oligosaccharide aldonic acid can form a gel matrix when its aqueous solution is evaporated at room temperature. The transparent gel obtained retains certain amount of water forming a clear gel matrix. The amount of water retention depends on individual oligosaccharide aldonic acid. Examples of gel matrix preparations are provided below.
In one example, a gel matrix can be formed when aqueous solution comprising an oligosaccharide aldonic acid is evaporated at room temperature. The transparent gel thus obtained retains certain amount of water forming a clear gel matrix. The amount of water retention depends on individual oligosaccharide aldonic acid. For example, maltobionic acid 1 g in a beaker was dissolved in water 1 ml, and the solution thus obtained was left at room temperature. Fifty percent of the original water had been evaporated at the end of 24 hours, and 57% at the end of 48 hours, and 60% at the end of 72 hours, and no more or minimal evaporation of water could be detected after 72 hours. A clear gel film thus obtained contained 29% water complexed with maltobionic acid molecules. In the same manner, lactobionic acid formed a clear gel matrix with 14% water molecules and cellobionic acid formed a transparent gel with 7% water molecules.
A typical experiment to determine a gel matrix formation of an oligosaccharide aldonic acid may be carried out as follows.
Maltobionic acid 1 g in a beaker of 3.6 cm diameter and 3.6 cm height was dissolved in water 1 ml, and the solution thus obtained was left at room temperature between 20-25° C. to allow a slow evaporation of the water. […] The continuous transparent film thus obtained consisted of 71% maltobionic acid and 29% water by weight, and was formed as a complex gel matrix between maltobionic acid molecules and water molecules.

[4] = antioxidant property, anthralin test method; assay type: physicochemical; settings: oil-in-water cream, 0.4% anthralin, test substance 0.1 M, 24 hours
Source text: as §1
Antioxidant property of an oligosaccharide aldonic acid may be determined by utilizing anthralin test method as follows.
Anthralin also known as dithranol is a yellowish powder, and a composition containing anthralin without a suitable antioxidant is chemically unstable even at room temperature. For example, anthralin 0.05% in an oil-in-water cream changed in color from yellow to gray within 24 hours at room temperature, and the cream became brownish within 48 hours. Under anhydrous condition, anthralin 0.05% ointment prepared from white petrolatum 2 parts and mineral oil 1 part by weight changed in color from bright yellow to grayish yellow within 24 hours, and the ointment became brownish after 12 days at room temperature.
Based on the above observations, an oil-in-water cream containing 0.4% anthralin with or without a known antioxidant was used as a positive or vehicle control.

[5] = test system: xerosis with flaky dry skin; experiment: topical treatment of xerosis of forearms; assay type: in vivo, human; settings: 5% water-in-oil cream twice daily, two weeks, person
Source text: A subject, having xerosis with flaky dry skin condition of their forearms topically applied twice daily maltobionic acid 5% water-in-oil cream for two weeks.

acute erythema on thighs = experiment: topical treatment of acute erythema after hot shower with alkaline soap; assay type: in vivo, human; settings: 3% partially neutralized cream, left thigh, person; control side persisted
Source text: A subject with sensitive skin developed acute erythema on their both thighs after taking hot shower using alkaline soap. They applied 3% partially neutralized maltobionic acid cream on their left thigh and a control cream on their right thigh.

[6] = test system: chronic atopic eczema and pruritic dry skin; experiment: topical treatment of chronic atopic eczema and pruritic dry skin; assay type: in vivo, human; settings: 17% cream twice daily, person
Source text: A subject with chronic atopic eczema and pruritic dry skin topically applied twice daily maltobionic acid 17% cream to itchy skin areas of eczema and dry skin lesions for two weeks.

| Structure (SMILES) | colour change of banana peels [1] | colour change of hydroquinone cream [2] | gel matrix formation [3] | colour change of anthralin cream [4] | also measured |
| --- | --- | --- | --- | --- | --- |
| CC(=O)N[C@@H](CS)C(=O)O [N-acetylcysteine, reference compound] | same results | did not change color |  |  |  |
| O=C(O)[C@H](O)[C@@H](O)[C@H](O[C@@H]1O[C@H](CO)[C@@H](O)[C@H](O)[C@H]1O)[C@H](O)CO [cellobionic acid] |  | did not change color | clear continuous gel film was formed | did not change the color | acid content of the gel film [3]: 93%; water retained in the gel film (gel matrix) [3]: 7% |
| O=C(O)CC(O)(CC(=O)O)C(=O)O [citric acid, reference compound] | same results | did not change color |  |  |  |
| O=C(O)[C@H](O)[C@@H](O)[C@H](O)[C@H](O)CO [gluconic acid, reference compound] |  |  | did not form any form of a gel matrix |  |  |
| O=C(O)[C@H](O)[C@@H](O)[C@H](O[C@@H]1O[C@H](CO)[C@H](O)[C@H](O)[C@H]1O)[C@H](O)CO [maltobionic acid] | did not change color | did not change color | clear continuous gel film was formed | did not change the color | dry skin condition [5]: dry skin condition disappeared completely; original water evaporated ([3]; end of 24 hours): Fifty; original water evaporated ([3]; end of 48 hours): 57%; original water evaporated ([3]; end of 72 hours): 60%; original water evaporated ([3]; end of 96 hours): 60.5%; water retained in the gel film (gel matrix) [3]: 29%; acid content of the gel film ([3]; listed as Maltobionic acid): 71%; water retained in the gel film (gel matrix) ([3]; listed as Maltobionic acid): 29%; erythema and itch (acute erythema on thighs): disappeared within a few minutes; eczema lesions ([6]; after two weeks): improved significantly; condition of treated skin ([6]; within a week): became smooth and less dry and itchy |
| O=C(O)C(=O)O [oxalic acid, reference compound] |  |  |  | did not change the color |  |
| O=C1O[C@H]([C@@H](O)CO)C(O)=C1O [vitamin C, reference compound] | same results | did not change color |  | did not change the color |  |
